The test concerns HCT116. Conditions: 72 h. In a few lines:
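For IC50 and maximal efficacy, four-parameter Hill fits were used. Input values were CellTiter-Glo luminescence from HCT116 cells seeded at 250 per well in 1536-well plates, normalized to vehicle (0%) and positive control (-100%). Pattern correction followed normalization.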

Where a name gives a salt, the structure may show the parent alone.

Molecule `CCCCNC(=N)NC(=N)N` [Buformin] had an IC50 cell viability (ICRF193 0 nM) greater than 45.8 µM and an IC50 cell viability (ICRF193 200 nM) greater than 45.8 µM.

On to `O=C1CC[C@H](C(=O)N2CCCCC2)N1` [Fasoracetam], for which the IC50 cell viability is greater than 45.8 µM (ICRF193 0 nM) and greater than 45.8 µM (ICRF193 200 nM).

`Nc1nc(=O)n([C@@H]2CS[C@H](CO)O2)cc1F` [Emtricitabine]: the IC50 cell viability reads like this: (ICRF193 0 nM) greater than 45.8 µM; (ICRF193 200 nM) greater than 45.8 µM.

As to `CCOC(=O)c1ccc(C#Cc2ccc3c(c2)C(C)(C)CCS3)nc1` [Tazarotene], the IC50 cell viability (ICRF193 0 nM) was greater than 45.8 µM and the IC50 cell viability (ICRF193 200 nM) is greater than 45.8 µM.

With `Nc1nnc(-c2cccc(Cl)c2Cl)c(N)n1` [Lamotrigine], the IC50 cell viability reads like this: (ICRF193 0 nM) greater than 45.8 µM; (ICRF193 200 nM) greater than 45.8 µM.

Regarding `COc1ccnc2c1CCCCC2[S+]([O-])c1nc2ccccc2[nH]1` (stereo unspecified) [Nepaprazole], the IC50 cell viability is greater than 45.8 µM (ICRF193 0 nM) and greater than 45.8 µM (ICRF193 200 nM).

Turning to `CCOc1ccc(NC(C)=O)cc1` [Phenacetin], the IC50 cell viability is greater than 45.8 µM (ICRF193 0 nM) and greater than 45.8 µM (ICRF193 200 nM).

Consider `Cc1cccc(C)c1NC(=O)C(C)N` (stereo unspecified) [Tocainide hydrochloride], for which the IC50 cell viability (ICRF193 0 nM) is greater than 45.8 µM and the IC50 cell viability (ICRF193 200 nM) is greater than 45.8 µM.

Regarding `CC(=O)c1ccc2c(c1)N(CCCN1CCN(CCO)CC1)c1ccccc1S2` [Acetophenazine Maleate], the IC50 cell viability is greater than 45.8 µM (ICRF193 0 nM) and greater than 45.8 µM (ICRF193 200 nM).

As for `CC(=O)O[C@]1(C(C)=O)CC[C@H]2[C@@H]3C=C(Cl)C4=CC(=O)[C@@H]5C[C@@H]5[C@]4(C)[C@H]3CC[C@@]21C` [Cyproterone acetate], the IC50 cell viability (ICRF193 0 nM) was greater than 45.8 µM and the IC50 cell viability (ICRF193 200 nM) is greater than 45.8 µM.

Consider `CC(=O)Nc1c(I)cc(I)c(C(=O)O)c1I` [Acetrizoic acid], for which the IC50 cell viability is, setting by setting: (ICRF193 0 nM) greater than 45.8 µM; (ICRF193 200 nM) greater than 45.8 µM.

Consider `CCOC(=O)COc1ccc2c(C)c(CCN(CC)CC)c(=O)oc2c1` [Chromonar hydrochloride], for which the IC50 cell viability is, setting by setting: (ICRF193 0 nM) greater than 45.8 µM; (ICRF193 200 nM) greater than 45.8 µM.

`CN(C)c1nc(N(C)C)nc(N(C)C)n1` [Altretamine]: the IC50 cell viability runs as follows: (ICRF193 0 nM) greater than 45.8 µM; (ICRF193 200 nM) greater than 45.8 µM.

`Cc1cc2c(cc1CC(=O)c1sccc1S(=O)(=O)Nc1onc(C)c1Cl)OCO2` [Sitaxentan] had an IC50 cell viability (ICRF193 0 nM) greater than 45.8 µM and an IC50 cell viability (ICRF193 200 nM) greater than 45.8 µM.

`O=c1[nH]cnc2c1ncn2[C@H]1CC[C@@H](CO)O1` [2',3'-Dideoxyinosine] displayed an IC50 cell viability (ICRF193 0 nM) greater than 45.8 µM and an IC50 cell viability (ICRF193 200 nM) greater than 45.8 µM.

Molecule `O=P(O)(O)CP(=O)(O)O` [Medronic acid] returned an IC50 cell viability (ICRF193 0 nM) greater than 45.8 µM and an IC50 cell viability (ICRF193 200 nM) greater than 45.8 µM.

As for `CCCC(=O)Nc1c(I)cc(I)c(CC(CC)C(=O)O)c1I` (stereo unspecified) [Sodium tyropanoate], the IC50 cell viability is greater than 45.8 µM (ICRF193 0 nM) and greater than 45.8 µM (ICRF193 200 nM).

On to `CC(C)C[C@H]1C(=O)N2CCC[C@H]2[C@]2(O)O[C@](NC(=O)[C@@H]3C[C@@H]4c5cccc6[nH]cc(c56)C[C@H]4N(C)C3)(C(C)C)C(=O)N12` [Dihydroergocriptine], for which the IC50 cell viability reads like this: (ICRF193 0 nM) greater than 45.8 µM; (ICRF193 200 nM) greater than 45.8 µM.

Consider `O=C(NC(Cc1cc(=O)[nH]c2ccccc12)C(=O)O)c1ccc(Cl)cc1` (stereo unspecified) [Rebamipide], for which the IC50 cell viability was greater than 45.8 µM (ICRF193 0 nM) and greater than 45.8 µM (ICRF193 200 nM).

`CCOC(=O)c1ncn2c1CN(C)C(=O)c1c(I)cccc1-2` [Iomazenil]: the IC50 cell viability (ICRF193 0 nM) was greater than 45.8 µM and the IC50 cell viability (ICRF193 200 nM) was greater than 45.8 µM.

Turning to `CC(S)C(=O)NCC(=O)O` (stereo unspecified) [Tiopronin], the IC50 cell viability was greater than 45.8 µM (ICRF193 0 nM) and greater than 45.8 µM (ICRF193 200 nM).

On to `Cc1nccn1CCC(C(N)=O)(c1ccccc1)c1ccccc1` [Imidafenacin], for which the IC50 cell viability was greater than 45.8 µM (ICRF193 0 nM) and greater than 45.8 µM (ICRF193 200 nM).

As to `CCC[C@@]1(CCc2ccccc2)CC(O)=C([C@H](CC)c2cccc(NS(=O)(=O)c3ccc(C(F)(F)F)cn3)c2)C(=O)O1` [Tipranavir], the IC50 cell viability reads like this: (ICRF193 0 nM) greater than 45.8 µM; (ICRF193 200 nM) greater than 45.8 µM.

With `CC(C)c1ccc2oc3nc(N)c(C(=O)O)cc3c(=O)c2c1` [Amlexanox], the IC50 cell viability was greater than 45.8 µM (ICRF193 0 nM) and greater than 45.8 µM (ICRF193 200 nM).

Consider `Nc1ccc(S(=O)(=O)Nc2cnc3ccccc3n2)cc1` [Sulfaquinoxaline], for which the IC50 cell viability by setting is: (ICRF193 0 nM) greater than 45.8 µM; (ICRF193 200 nM) greater than 45.8 µM.

As for `Nc1nc2c(ncn2COCCO)c(=O)[nH]1` [Aciclovir], the IC50 cell viability was greater than 45.8 µM (ICRF193 0 nM) and greater than 45.8 µM (ICRF193 200 nM).

For `COc1ccc(C(=O)NCc2ccc(OCCN(C)C)cc2)cc1OC` [Itopride hydrochloride], the IC50 cell viability is, setting by setting: (ICRF193 0 nM) greater than 45.8 µM; (ICRF193 200 nM) greater than 45.8 µM.

With `CCOc1cc(OCC)c(C(=O)CCC(=O)O)cc1OCC` [Trepibutone], the IC50 cell viability reads like this: (ICRF193 0 nM) greater than 45.8 µM; (ICRF193 200 nM) greater than 45.8 µM.

(Values after the supplement of paper PMC12137928.)
